From PubChem BioAssay AID2305 (GlaxoSmithKline (GSK), 2010) come the findings set out here.

This test deals with P. falciparum 3D7 growth, pLDH absorbance. The experiment in a line: P. falciparum 3D7 growth inhibition, dose response, strain 3D7 (AID 2305).

Where a SMILES comes first, the peptide text is derived from it. The star is where a group is joined. Boc = CC(C)(C)OC(=O)*

For the compound `CCNc1cc(C(=O)N[C@@H](Cc2ccccc2)[C@H](O)CNC2(C(C)C)CCC2)cc(N2CCCCS2(=O)=O)c1`, the 50% inhibitory concentration (IC50) amounted to 680 nM.

`CCCNC(=O)Nc1cc2cc(-c3ccc(CN4CCCC4)cc3)ccc2n2c(C)nnc12` had an IC50 of 1500 nM.

Compound `CC(=O)c1ccc(NC(=O)C2c3ccccc3C(=O)N(CC(C)C)C2c2cccs2)cc1` (stereo unspecified) showed an IC50 of 1320 nM.

`CCNc1cc(CC)nc(Nc2ccc(C)cc2)n1` displayed an IC50 of 850 nM.

In turn, `COc1cc(-c2[nH]c(-c3ccc(OCCN(C)C)cc3)cc2-c2ccncc2)ccc1Cl` displayed an IC50 of 1790 nM.

In turn, `O=C(Nc1cccc(C(F)(F)F)c1)Nc1ccc(F)c([N+](=O)[O-])c1` yielded an IC50 of 700 nM.

With `O=C(Nc1ccc(OC2CCN(Cc3ccc(F)cc3)CC2)c(Cl)c1)c1cccs1`, the IC50 came to 320 nM.

As for `COc1ccc(NC(=O)CSc2nc(-c3ccccc3Cl)ns2)cc1`, the IC50 was 1040 nM.

The compound `O=C(Nc1cc(C(F)(F)F)cc(C(F)(F)F)c1)NC(CCCN1CCC2(CC1)OCc1ccccc12)c1ccc(Cl)c(Cl)c1` (stereo unspecified) displayed an IC50 of 820 nM. The IC50 values of the last two compounds are within 1.5-fold of each other.

Regarding `O=C(Nc1ccc2c(ccn2C2CCCN(Cc3cc(F)cc(F)c3F)CC2)c1)c1ccco1` (stereo unspecified), the IC50 was determined as 650 nM.

`N=c1c2c(n(Cc3cccc(Cl)c3)c3c1CCC3)CCCC2` showed an IC50 of 190 nM.

The compound `O=C(Nc1ccc2ccccc2c1)c1ccc(CN2CCC(Cc3ccccc3)CC2)cc1` displayed an IC50 of 880 nM.

In the case of `Cc1cc(O)c2c(c1)OC(C)(C)C=C2C1=CCN(Cc2ccccc2)CC1`, the IC50 came out at 790 nM.

Regarding `O=C(/C=C/c1ccc(Cl)c(Cl)c1)N(Cc1ccccc1)C1CCC(CN2CCC(c3c[nH]c4ccccc34)CC2)CC1` (stereo unspecified), the IC50 came out at 210 nM.

With `CN(C)CC1c2[nH]c3ccccc3c2CCN1C(=O)Nc1ccc(Cl)c(Cl)c1` (stereo unspecified), the half-maximal inhibitory concentration (IC50) came out at 1210 nM.

The compound `Cc1cc(C2NC(=O)c3ccccc3N2)c(C)n1-c1ccc2c(c1)OCO2` (stereo unspecified) showed an IC50 of 730 nM.

On to `CO/C(=C\C=C\c1cc2cc(Cl)c(Cl)cc2[nH]1)C(=O)NC1CCN(CCCc2ccccc2)CC1`, for which the IC50 amounted to 770 nM.

The compound `COc1ccc(-c2cnc3[nH]cc(-c4ccc(C(=O)O)c(C)c4)c3c2)cn1` showed an IC50 of 310 nM.

For the compound `O=C(NCc1ccccc1)NC1CCN(c2ccnc3cc(Cl)ccc23)C1` (stereo unspecified), the IC50 came to 160 nM.

`Cc1cccc2[nH]c(-c3cccc(-c4ccc(NC(=O)CN5CCN(C)CC5)cc4)c3)nc12` showed an IC50 of 560 nM.

`Cc1cccc2[nH]c(-c3cccc(-c4ccc(C(=O)N5CCCCC5C(C)O)cc4)c3)nc12` (stereo unspecified) showed an IC50 of 370 nM.

On to `CS(=O)(=O)N(c1cccc(F)c1)c1cc(C(=O)N[C@@H](Cc2ccccc2)[C@H](O)CNCc2cccc(C(F)(F)F)c2)cc(N2CCCC2=O)c1`, for which the IC50 is 910 nM. Compared with the last compound, the IC50 is about 2.5-fold higher.

Regarding `N#Cc1cccc(C(O)CN(Cc2ccccc2)Cc2ccccc2)c1` (stereo unspecified), the IC50 amounted to 1270 nM.

Take `CCOc1ccc2nc(C)cc(NN=Cc3ccccc3[N+](=O)[O-])c2c1`: the IC50 is 30 nM.

`CCN(CCCN1CCCCC1)c1cc(C)nc(Nc2ccc(C)cc2Br)n1` returned an IC50 of 170 nM.

`CCc1ccc(C2CCN(CCCCNC(=O)c3ccc(-c4ccc(C#N)cc4)cc3)CC2)c(OCCO)c1`: the IC50 amounted to 940 nM.

Turning to `O=C(Cc1ccccc1)NC(Nc1ccc([N+](=O)[O-])cc1)C(Cl)(Cl)Cl` (stereo unspecified), the IC50 worked out at 970 nM. This IC50 and that of the compound before are within 1.5-fold of each other.

`CO/C(=C\C=C\c1cc2cc(Cl)c(Cl)cc2[nH]1)C(=O)NCCCN1CCN(Cc2ccccc2)CC1` had an IC50 of 910 nM.

`Cc1cc(NC2CCCC2)nc(Nc2ccccc2C)n1` yielded an IC50 of 1350 nM.

`Clc1ccc(CNC2CCN(CC3CCCCC3)CC2)cc1` came in with an IC50 of 1110 nM. This IC50 and that of the compound before are within 1.5-fold of each other.

Compound `O=C(NCc1ccc(Cl)cc1)c1ccc(C(=O)NCC2CCCN2CC2CCCCC2)cc1` (stereo unspecified) came in with an IC50 of 850 nM.

In turn, `Cc1cccc2[nH]c(-c3ccc(-c4ccc(CNCc5cccc(N)c5)cc4)s3)nc12` had an IC50 of 750 nM.

Turning to `c1cncc(-c2cccc(CNc3nccc(Nc4ccc(OCCN5CCOCC5)cc4)n3)c2)c1`, the IC50 was found to be 1060 nM. This IC50 and that of the compound before are within 1.5-fold of each other.

With `COc1ccc(CCNc2ccnc3cc(Cl)ccc23)cc1OC`, the IC50 worked out at 890 nM. The IC50 values of the last two compounds are within 1.5-fold of each other.

Consider `Clc1ccc(Nc2nc(-c3ccccn3)cs2)nc1`, for which the IC50 came out at 770 nM. The IC50 values of the last two compounds are within 1.5-fold of each other.

In turn, `COc1cccc(C(NC(=O)c2ccccc2)c2ccc3cccnc3c2O)c1` (stereo unspecified) yielded an IC50 of 1080 nM.

In turn, `N#Cc1ccc(NC2(C(=O)N3CCN(c4cccc(Cl)c4)CC3)CC2)c2ccccc12` returned an IC50 of 1150 nM.

For the compound `COC(=O)CC[C@H](NC(=O)[C@H](C)NC(=O)OC(C)(C)C)C(=O)OC` (Boc-Ala-Glu(OMe)-OMe), the IC50 came to 820 nM.

Compound `CN(C)CCCOc1cccc(NC(=O)Nc2ccc(Cl)c(Cl)c2)c1` returned an IC50 of 960 nM. The IC50 values of the last two compounds are within 1.5-fold of each other.

Compound `CCCNC[C@@H](O)[C@H](Cc1ccccc1)NC(=O)c1cc(NCC)cc(N2CCCCS2(=O)=O)c1` showed an IC50 of 220 nM.

In turn, `c1ccc(OCCOc2ccc(Nc3ccnc4cc5ccccc5cc34)cc2)cc1` displayed an IC50 of 250 nM. This IC50 and that of the compound before are within 1.5-fold of each other.

In turn, `Cc1cc(NC(=O)Nc2ccc(C(C)C)cc2)c2ccccc2n1` had an IC50 of 660 nM.

`CN(C)CCNC(=O)c1ccc2c(c1)n(C1CCN(S(=O)(=O)c3ccc(-c4ccccc4)cc3)CC1)c(=O)n2CC1CCCCC1`: the IC50 worked out at 620 nM.

In the case of `O=c1cc(NCCCNCc2cc3c(Cl)cccc3s2)[nH]c2ccccc12`, the IC50 worked out at 470 nM.

Take `Nc1ncc(-c2cn[nH]c2)cc1-c1nc2ncc(Cl)cc2[nH]1`: the IC50 came out at 910 nM.

In the case of `COc1cc(Cc2cnc3nc(N)nc(N)c3c2C)cc(OC)c1OC`, the IC50 worked out at 60 nM.

For `Cc1cc(NC(=O)CCN2CCN(c3cccc(Cl)c3Cl)CC2)ccc1N1CCN(C(C)C)CC1`, the IC50 came to 850 nM.

The compound `CN1CCCN(Cc2cccc(-c3cccc(NC(=O)c4ccc(Cl)cc4)c3)c2)CC1` displayed an IC50 of 920 nM.

Consider `CCc1nn2c(Nc3ccncc3)cc(C)nc2c1-c1ccccc1`, for which the IC50 turned out to be 200 nM.

`COc1ccc(NC(=O)CCNc2cc(C)nc(NCc3cccc(C)c3)n2)cc1` had an IC50 of 1090 nM.

`Cc1cccc2[nH]c(-c3ccc(-c4ccc(CN5CCN(c6ccc(C#N)cn6)CC5)cc4)s3)nc12` showed an IC50 of 1130 nM.

The compound `CC[C@H]1CN2CCc3c([nH]c4ccccc34)[C@@H]2C[C@@H]1CC1c2cc(OC)c(OC)cc2CCN1C` (stereo partly specified) registered an IC50 of 1090 nM.

`C=C(C)Cn1cc(C2CCN(CCCCNC(=O)c3sc(-c4ccc(Cl)cc4Cl)nc3CO)CC2)c2ccccc21` displayed an IC50 of 1150 nM.

`FC(F)(F)c1ccc2nc(-c3ccc(-c4ccc(CNCC5CCCO5)cc4)cc3)[nH]c2c1` (stereo unspecified) had an IC50 of 410 nM.

With `O=C(/C=C/c1ccc(Cl)c(Cl)c1)NCCCCCN1CCC(CCNC(=O)C2(c3ccc(Cl)cc3)CC2)CC1`, the IC50 was found to be 920 nM.

The compound `CC(C)c1ccc(CN2CCC(NC(=O)c3ccc(-c4ccccc4F)s3)CC2)cc1` gave an IC50 of 1550 nM.

Turning to `Cc1[nH]nc2ccc(-c3cc(OC[C@@H](N)Cc4ccccc4)cnc3-c3ccccc3OCc3cccc(F)c3)cc12`, the IC50 turned out to be 1220 nM. This IC50 and that of the compound before are within 1.5-fold of each other.

Compound `Oc1ccc(CCNc2nc(NCCOc3ccccc3-c3ccccc3)nc(N3CCNCC3)n2)cc1` had an IC50 of 1040 nM.

Regarding `O=C(Nc1cccc(CN2CCCN(Cc3ccc(O)cc3)CC2)c1)c1ccc(-c2ccccc2)cc1`, the IC50 was 340 nM.

In the case of `CN(C)c1ccc(NC(=O)Nc2ccnc3ccc(Br)cc23)cc1`, the IC50 turned out to be 870 nM. Against the preceding compound, the IC50 is about 2.6-fold higher.

With `C=CCOc1cccc2c1CCN(CCN1CCC(NC(=O)c3ccc(-c4ccc(Cl)cc4)cc3)CC1)C2`, the IC50 came out at 670 nM.

Regarding `COc1ccc2nccc([C@@H](O)CN3CCC(NC(=O)C(c4cc5ccccc5s4)N4CC(C)OC(C)C4)CC3)c2c1` (stereo partly specified), the IC50 is 980 nM.

`Oc1ccc(CCNCCCCNCCc2ccc(Cl)cc2)cc1O` showed an IC50 of 840 nM.

For `c1ccc(COc2ccnc(NCCCOc3cccc(CN4CCCCC4)c3)c2)cc1`, the IC50 was 990 nM.

On to `COc1cccc2c(NN=Cc3ccccc3[N+](=O)[O-])ccnc12`, for which the IC50 was determined as 590 nM.

The compound `CCOc1ccc(N2CCN(CCCCNC(=O)c3ccc(NC(=O)c4ccc(Cl)cc4)cc3)CC2)c(OCC)c1` came in with an IC50 of 570 nM.

Consider `COc1ccc2nccc([C@@H](O)CN3CCC(NCc4ccc5c(c4)NC(=O)CS5)CC3)c2n1`, for which the IC50 is 750 nM.

`O=C1c2ccccc2CCC1CCN1CC=C(c2c[nH]c3ccccc23)CC1` (stereo unspecified) registered an IC50 of 700 nM.

With `CCCC[C@H](NC(=O)O[C@H](COc1ccc(OCc2ccccc2)cc1)C(C)(C)C)C(=O)C(=O)Nc1ccn[nH]1`, the IC50 worked out at 990 nM.

In turn, `N#Cc1ccc(NC(=NC2Cc3ccccc3C2)Nc2cccc(Cl)c2Cl)c(O)c1` came in with an IC50 of 830 nM.

The compound `CN(Cc1cccc(O)c1)C1CCN(c2cc(NC(=O)c3cccc(F)c3)ccn2)CC1` registered an IC50 of 850 nM.

Regarding `Cc1cc(C(F)(F)F)cc(-n2ncc(-c3ccc(C(=O)NCc4ccccc4N)cc3)c2N)n1`, the half-maximal inhibitory concentration (IC50) worked out at 450 nM.

Turning to `O=C1C=Cc2ccccc2/C1=C/c1sc(=NCc2ccccc2)n(Cc2ccccc2)c1O`, the IC50 came to 160 nM.

`O=C(/C=C/c1ccc(-c2nc3ccc(Cl)cc3[nH]2)cc1)NC1CCN(Cc2ccccc2)CC1` gave an IC50 of 610 nM. This IC50 is about 3.8-fold higher than that of the compound before.

As to `CN(C)CC(O)C(c1ccccc1)c1cccc(Br)c1` (stereo unspecified), the IC50 amounted to 160 nM.

`O=C(NCCc1ccccc1)N(Cc1ccccc1-c1cccc(CNCc2ccc3c(c2)OCO3)c1)C1CCN(Cc2ccccc2)CC1` displayed an IC50 of 990 nM. Against the preceding compound, the IC50 is about 6.2-fold higher.

`COc1ccc(CNCC(C)(C)c2nc(-c3ccc(Cl)c(O)c3)c(-c3ccncc3)[nH]2)cc1` registered an IC50 of 360 nM.

`CCCCCCCN1CC[C@@H](CCCc2ccnc3ccc(OCC4CCCNC4)cc23)[C@@H](CC)C1` (stereo partly specified): the IC50 is 620 nM.

`Cc1cccc2[nH]c(-c3ccc(-c4cccc(CN5CCN(CCO)CC5)c4)cc3)nc12` returned a concentration for half-maximal inhibition (IC50) of 730 nM.

Take `CN(Cc1ccccc1)C1CCCN(c2cc(NC(=O)c3ccc(F)cc3)ccn2)C1` (stereo unspecified): the IC50 stood at 990 nM.

With `COc1ccc(N2CCN(CCCCNC(=O)c3ccc(NC(=O)c4ccc(Cl)cc4)cc3)CC2)c(C)c1`, the IC50 worked out at 760 nM.

Regarding `O=C(/C=C/c1ccc(F)cc1)NC1CCC(CCN2CCCN(c3ccc(C(F)(F)F)cn3)CC2)CC1` (stereo unspecified), the IC50 worked out at 1080 nM.

Take `CCOc1c(OC)ccc2c1CCN(CCN1CCC(CNC(=O)c3ccc(-c4ccc(C(F)(F)F)cc4)cc3)CC1)C2`: the IC50 worked out at 850 nM.

Turning to `FC(F)(F)c1ccc2nc(-c3ccc(-c4ccc(CNCCN5CCNCC5)cc4)cc3)[nH]c2c1`, the IC50 came to 1120 nM. This IC50 and that of the compound before are within 1.5-fold of each other.

As to `NC(N)=Nc1ccc(OCCCCCOc2ccc(N=C(N)N)cc2)cc1`, the IC50 amounted to 190 nM. Against the preceding compound, the IC50 is about 5.9-fold lower.

On to `Cc1ccc(S(=O)(=O)N2CCN(C(=O)c3cc(-c4ccccc4)n[nH]3)CC2)cc1`, for which the IC50 turned out to be 600 nM.
